The nature of this series: photoluminescence quantum yield (fraction); solvent given as SMILES.

Compound `CC1=C(c2ccccc2)C(C)=[N+]2C1=C(c1ccccc1)c1c(C)c(-c3ccccc3)c(C)n1[B-]2(F)F` showed a photoluminescence quantum yield (in Cc1ccccc1) of 0.325.
Compound `F[B-]1(F)n2c(Oc3ccccc3)c(Cl)c(Br)c2C(Oc2ccccc2)=C2C(Br)=C(Cl)C(Oc3ccccc3)=[N+]21` had a photoluminescence quantum yield (in ClCCl) of 0.68.
As to `C1=Cc2ccc(N(c3ccccc3)c3ccccc3)cc2Cc2cc(N(c3ccccc3)c3ccccc3)ccc21`, the photoluminescence quantum yield (in ClCCl) worked out at 0.99.
Take `Cc1ccc(-c2ccc(/C=C/c3ccc([N+](=O)[O-])cc3)cn2)nc1`: for the setting “in CC#N”, the photoluminescence quantum yield amounted to 0.045.
`CC(C)(C)c1cc(C(C)(C)C)c(-c2nnc(-c3ccc(-n4c5ccccc5c5ccccc54)cc3)o2)c(C(C)(C)C)c1` gave a photoluminescence quantum yield (in Cc1ccccc1) of 0.62.
As for `N#Cc1cc2ccc3cc(C#N)c4ccccc4c3c2c2ccccc12`, for the setting “in ClC(Cl)Cl”, the photoluminescence quantum yield worked out at 0.14.
Take `COc1cccc2cc(-c3cc4cccc(OC)c4oc3=O)oc12`: the photoluminescence quantum yield (in CS(C)=O) came to 0.11.
On to `COc1ccc(C2=N/C(=C\c3ccc(C#N)cc3)C(=O)N2)cc1OC`, for which, where the note is “in C1COCCO1”, the photoluminescence quantum yield was 0.189.
`O=Cc1nc2ccc(C#Cc3ccc(N(c4ccccc4)c4ccccc4)cc3)cc2s1` displayed a photoluminescence quantum yield (in Cc1ccccc1) of 0.57.
`CCn1c2ccccc2c2c(C#N)c3c(ccc4c3cnn4C)nc21` showed a photoluminescence quantum yield (in CCOC(C)=O) of 0.45.
Take `CC[N+](CC)=c1ccc2nc3c(cc(NCCC(=O)NC(C)C(=O)OC)c4ccccc43)oc-2c1` (configuration not stated): the photoluminescence quantum yield (in CCO) came out at 0.18 and the photoluminescence quantum yield (in O) was 0.13.
Regarding `CC(C)(C)c1cccc2c1oc1nc3oc4ccc(-n5c6ccccc6c6ccccc65)cc4c3cc12`, the photoluminescence quantum yield (in ClC(Cl)Cl) came out at 0.072.
Compound `Cc1cc(C)c(B(c2cc(-c3ccc(N(C)C)cc3)sc2-c2sc(-c3ccc(N(C)C)cc3)cc2P(=O)(c2ccccc2)c2ccccc2)c2c(C)cc(C)cc2C)c(C)c1` registered a photoluminescence quantum yield (in CO) of 0.18.
Under “in C1CCOC1”, `F[B-]1(F)n2c(c(-c3ccccc3)c(-c3ccccc3)c2-c2ccccc2)C=C2C(c3ccccc3)=C(c3ccccc3)C(c3ccccc3)=[N+]21` yielded a photoluminescence quantum yield of 0.96.
Same read-out and setting: in the case of `COc1ccc(C(=Cc2ccc(C=O)cc2)c2ccc(OC)cc2)cc1` it was 0.066.
Take `N#CC(C#N)=Cc1nc2ccc(C#Cc3ccc(N(c4ccccc4)c4ccccc4)cc3)cc2s1`: under “in Cc1ccccc1”, the photoluminescence quantum yield turned out to be 0.07.
Regarding `COc1cc(/C=C/c2nc3ccccc3s2)c(OC)cc1/C=C/c1nc(C)nc(C)n1`, the photoluminescence quantum yield came to 0.94 (in C1CCOC1), 0.86 (in CC#N), 0.88 (in ClC(Cl)Cl) and 0.86 (in ClCCl).
`CN(C)c1ccc(C#CC2=C3CCc4ccccc4C3=[O+][B-](F)(F)O2)cc1` came in with a photoluminescence quantum yield (in ClCCl) of 0.
For the compound `N#Cc1ccc(N)cc1`, the photoluminescence quantum yield is 0.13 (in C1CCCCC1); 0.12 (in CC#N); 0.09 (in CCCCCC); 0.041 (in CCO); 0.0046 (in O); 0.0052 (in OCC(F)(F)F).
Compound `CCCCc1cc(-c2cccc(COC)c2)oc1-c1cccc(-c2cc(CCCC)c(-c3cccc(-c4oc(-c5cccc(-c6oc(-c7cccc(COC)c7)cc6CCCC)c5)cc4CCCC)c3)o2)c1` displayed a photoluminescence quantum yield (in ClC(Cl)Cl) of 0.23.
`CC(C)(C)NC(=O)c1ccc(F)c2ccc3c4ccccc4c4ccccc4c3c12` displayed a photoluminescence quantum yield (in ClCCl) of 0.04.
`O=C(c1ccc(N2c3ccccc3Oc3ccccc32)cc1)c1ccc(N2c3ccccc3Oc3ccccc32)cc1`: the photoluminescence quantum yield was 0.44 (in Cc1ccccc1) and 0.7 (in c1cc(-n2c3ccccc3c3ccccc32)cc(-n2c3ccccc3c3ccccc32)c1).
As to `CC/[NH+]=c1\cc2oc3cc(NCCN)c4ccccc4c3nc-2cc1C`, the photoluminescence quantum yield turned out to be 0.27 (in CCO) and 0.18 (in O).
As for `N#CC(C#N)=Cc1ccc(-c2ccc(O)c(-c3nc4ccccc4s3)c2)o1`, the photoluminescence quantum yield was 0.0357 (in CCO) and 0.016 (in ClCCl).
Take `Cc1cc(-c2ccc(-c3ccccc3)cc2)nc(-c2ccc(-n3c4ccccc4c4ccccc43)cc2)n1`: the photoluminescence quantum yield runs as follows: (in C1CCOC1) 0.22; (in CN(C)C=O) 0.24; (in Cc1ccccc1) 0.24; (in ClC(Cl)Cl) 0.43.
For `N#CC(C#N)=Cc1ccc(-c2ccc(N(c3ccccc3)c3ccccc3)cc2)s1`, the photoluminescence quantum yield (in ClC(Cl)Cl) came out at 0.18.
Take `c1ccc(-c2nc(-c3ccccc3)nc(-c3cc(-n4c5ccccc5c5ccccc54)c(-n4c5ccccc5c5ncccc54)c(-n4c5ccccc5c5ccccc54)c3)n2)cc1`: the photoluminescence quantum yield (in O=P(c1ccccc1)(c1ccccc1)c1ccc2oc3ccc(P(=O)(c4ccccc4)c4ccccc4)cc3c2c1) came out at 0.79.
The compound `COc1ccccc1C1=[N+]2C(=C(c3ccccc3)c3c4c(c(-c5ccccc5OC)n3[B-]2(F)F)C2C=CC4CC2)C2=C1C1C=CC2CC1` (configuration not stated) had a photoluminescence quantum yield (in ClCCl) of 0.87.
Under “in C1CCOC1”, `Cc1cc(C)c([B-]2(c3c(C)cc(C)cc3C)[O+]=P(c3ccccc3)(c3ccccc3)c3cc(-c4ccc(C(C)(C)C)cc4)sc3-c3sc(-c4ccc(C(C)(C)C)cc4)cc32)c(C)c1` returned a photoluminescence quantum yield of 0.16.
For `C#CCn1c2ccccc2c2cc(/C=C/c3c(Cl)c(C)c4n3[B-](F)(F)[N+]3=C(C)C(Cl)=C(C)C3=C4c3ccc(I)cc3)ccc21`, the photoluminescence quantum yield came to 0.43 (in CC#N), 0.33 (in CS(C)=O) and 0.62 (in ClC(Cl)Cl).
The compound `N#Cc1ccc(-c2cc3c(ccc4sccc43)s2)cc1` had a photoluminescence quantum yield (in ClCCl) of 0.22.
The compound `COc1ccc(-c2c3ccc([nH]3)c3nc(c(-c4ccc([N+](=O)[O-])cc4)c4ccc([nH]4)c4ccc([nH]4)c(-c4ccc(OC)cc4)c4ccc2o4)C=C3)cc1` registered a photoluminescence quantum yield (in C1CCOC1) of 0.013, a photoluminescence quantum yield (in Cc1ccccc1) of 0.075 and a photoluminescence quantum yield (in c1ccccc1) of 0.08.
In turn, `c1cc2c3c(c1)ccc1[n+]3[B-]3(Oc4cccc5ccc6[n+](c45)[B-](O2)(O3)n2c-6cc3c4ccccc4c4ccccc4c32)n2c-1cc1c3ccccc3c3ccccc3c12` registered a photoluminescence quantum yield (in ClCCl) of 0.89.
For `CCOC(=O)C1=C(C)NC2=C(C(=O)c3ccccc32)C1c1ccc(N(C)C)cc1` (configuration not stated), the photoluminescence quantum yield (in C1CCOC1) came to 0.34; the photoluminescence quantum yield (in C1COCCO1) amounted to 0.43; the photoluminescence quantum yield (in CC#N) was determined as 0.3; the photoluminescence quantum yield (in CCO) was 0.092; the photoluminescence quantum yield (in CN(C)C=O) was 0.33; the photoluminescence quantum yield (in CO) amounted to 0.035. Besides, the photoluminescence quantum yield was determined as 0.29 (in CS(C)=O), 0.16 (in ClC(Cl)(Cl)Cl), 0.44 (in ClC(Cl)Cl) and 0.4 (in ClCCl).
On to `CCC1=C(C)C2=C(c3cc(C(=O)Cl)cc(C4=C5C(C)=C(CC)C(C)=[N+]5[B-](F)(F)n5c(C)c(CC)c(C)c54)c3)c3c(C)c(CC)c(C)n3[B-](F)(F)[N+]2=C1C`, for which the photoluminescence quantum yield reads like this: (in C1CCOC1) 0.87; (in CC#N) 0.41; (in CN(C)C=O) 0.61; (in Cc1ccccc1) 0.83; (in ClC(Cl)Cl) 0.7.
Turning to `CCOC(=O)C1=C(N)n2c(=O)c3ccccc3c(=O)n2C1c1ccc([N+](=O)[O-])cc1` (configuration not stated), the photoluminescence quantum yield (in CS(C)=O) was determined as 0.049.
As for `Cc1cc(C)c(C2=C3C=C(/C=C/C(=O)OCc4ccccc4)C=[N+]3[B-](F)(F)n3cccc32)c(C)c1`, the photoluminescence quantum yield (in ClCCl) was determined as 0.36.
With `c1coc(-c2nc3ccccc3[nH]2)c1`, the photoluminescence quantum yield is, setting by setting: (in C1CCOC1) 0.87; (in CCCCCC) 0.95; (in CCO) 0.93; (in CCOCC) 0.94; (in CO) 0.97; (in ClC(Cl)Cl) 0.28. For the same compound, the photoluminescence quantum yield amounted to 0.86 (in ClCCl) and 0.96 (in O).
Compound `COC(=O)c1cccc2c1C#Cc1c(N)cccc1OCCCO2` returned a photoluminescence quantum yield (in CC#N) of 0.03 and a photoluminescence quantum yield (in ClCCl) of 0.14.
For the compound `CC1=CC(C)=[N+]2C1=Cc1c3ccccc3c(C#Cc3ccccc3)n1[B-]2(F)F`, the photoluminescence quantum yield amounted to 0.89 (in CCCCCC); 0.88 (in CCCCCCCCO); 0.84 (in CCOC(C)=O); 0.6 (in CN(C)C=O); 0.89 (in ClCCl).
Consider `Cc1ccccc1-c1c2ccc(=[N+]3CCCCC3)cc-2oc2cc(N3CCCCC3)ccc12`, for which the photoluminescence quantum yield was 0.28 (in CCO) and 0.89 (in ClCCl).
Compound `N#Cc1ccc(-c2ccc(C3=CCCCC3)s2)s1` displayed a photoluminescence quantum yield (in CCO) of 0.06.
`C[Si](C)(C)C#CC(C#C[Si](C)(C)C)=Cc1ccc(C=C(C#C[Si](C)(C)C)C#C[Si](C)(C)C)s1` registered a photoluminescence quantum yield (in ClC(Cl)Cl) of 0.01.
As to `CC(C)(C)c1ccc2c(c1)c1cc(C(C)(C)C)ccc1n2-c1cc[n+]2c(c1)-c1ccccc1O[B-]2(F)F`, under “in O=P(c1ccccc1)(c1ccccc1)c1ccccc1Oc1ccccc1P(=O)(c1ccccc1)c1ccccc1”, the photoluminescence quantum yield amounted to 0.74.
In turn, `CCCCCCCCC1(CCCCCCCC)c2ccccc2-c2ccc(-c3nnc(-c4ccc(-n5c6ccc(C(C)(C)C)cc6c6cc(C(C)(C)C)ccc65)cc4)o3)cc21` returned a photoluminescence quantum yield (in Cc1ccccc1) of 0.88.
`CC(=O)c1ccn2c3c(c(/C=C/c4cc[n+](C)cc4)c2c1)CN(C)C3=O` gave a photoluminescence quantum yield (in O) of 0.041.
On to `Nc1ncnc2c1c(-c1ccc3ccccc3c1)nn2[C@H]1C[C@H](O)[C@@H](CO)O1`, for which the photoluminescence quantum yield (in C1COCCO1) worked out at 0.11; the photoluminescence quantum yield (in CC#N) turned out to be 0.1; the photoluminescence quantum yield (in CC(C)O) was determined as 0.16; the photoluminescence quantum yield (in CCO) was 0.14; the photoluminescence quantum yield (in CCOC(C)=O) worked out at 0.08; the photoluminescence quantum yield (in CN(C)C=O) worked out at 0.13. Further, the photoluminescence quantum yield runs as follows: (in CO) 0.14; (in CS(C)=O) 0.15; (in OCC(O)CO) 0.11; (in OCCO) 0.21.
Under “in Cc1ccccc1”, `c1ccc(-c2nc3ccccc3nc2-c2cc(-n3c4ccccc4c4ccccc43)cc(-n3c4ccccc4c4ccccc43)c2)cc1` returned a photoluminescence quantum yield of 0.19.

For the origin of these results see the Deep4Chem optical property database.
